# Measurements published in patent US7906520B2, “Methods for treating pain” (The General Hospital Corporation, priority 2003, dated 2011).
# Legend:
# [1] = DAHP pharmacokinetics in plasma and CSF; type: in vivo, rat; conditions: single dose 180 mg/kg i.p.
# Method: FIGS. 14A-14C represent a series of graphs showing pharmacokinetic features of DAHP and the pharmacokinetic-pharmacodynamic relationship. […] In addition, concentrations of DAHP in cerebrospinal fluid (CSF) were determined at an early and late time point. In FIG. 14B, plasma concentrations were fitted according to a one-compartment PK model with first order input and first order elimination. PK parameters are presented where Cmax is the maximum concentration, tmax the time of the maximum concentration, k01 is the absorption rate constant, t1/2abs. represents the absorption half-life, k10 is the elimination rate constant, t1/2 el is the elimination half-life, and Cl is the clearance. In FIG. 14C, pooled plasma concentration and effect data of the CFA model were used to assess the PK/PD relationship employing a standard sigmoidal Emax model.
# naïve rats = experiment: Response to tactile and heat stimuli in naïve rats; type: in vivo, rat; conditions: non-injured animals
# Method: FIGS. 13A and 13B are a series of graphs showing the effects of DAHP on the response to tactile (13A) and heat stimuli (13B) in naïve rats. A single dose of DAHP (180 mg/kg i.p.) or vehicle was injected at time “zero”.
# Hypersensitivity was induced using the CFA model of paw inflammation. In these experiments, BH4 was injected at time “zero” after measurement of baseline paw withdrawal latency.
# SNI model = experiment: SNI model, L-NAME versus DAHP; type: in vivo; conditions: DAHP 120 mg/kg i.p. single dose vs L-NAME 25 mg/kg i.p.
# Method: In this figure, closed circles represent nNOS knockout mice with DAHP; open circles, nNOS knock out mice with vehicle; closed triangles, wild type mice with DAHP; and open triangles, wild type mice with vehicle. […] In this figure, closed triangles represent L-NAME administration; open circles, L-NAME+DAHP administration; closed circles, DAHP administration; and open triangles, vehicle administration. L-NAME was administered at 25 mg/kg, i.p., single dose, and DAHP was administered at 120 mg/kg, i.p., single dose. The antinociceptive efficacy of this high L-NAME dose is weaker (about 50%) than that of a moderate dose of DAHP.
# [2] = test system: SNI model of neuropathic pain; experiment: Spared nerve injury (SNI) model of neuropathic pain, von Frey and acetone tests; type: in vivo
# Method: FIGS. 8A-8D represent a series of graphs showing the effect of DAHP on nociceptive behavior in the SNI model of neuropathic pain. Figures on the left show the threshold to mechanical stimuli applied with von Frey hairs (von Frey threshold). Figures on the right show the duration of paw licking, shaking and lifting following acetone application to the paw as a measure for cold allodynia. In FIG. 8A, rats were treated with DAHP (180 mg/kg/d i.p.) for three days starting three days after surgery (early treatment). Nociceptive behavior was assessed daily before and after drug injection. In FIG. 8B, the treatment period was extended to five days (180 mg/kg/d i.p.) starting three days after surgery and pain behavior was assessed daily before and after drug injection and once every second day for an additional week after stopping the daily drug injections. In FIG. 8C, treatment with DAHP (180 mg/kg/d i.p. for 5 days) was started 17 days after surgery i.e. in the chronic phase without any treatment in the early phase. Nociceptive behavior was assessed once daily 3 h after drug injection. In FIG. 8D, animals received a continuous spinal infusion of DAHP (6 mg/kg/d) for 14 days. The infusion was started directly after surgery. Nociceptive behavior was assessed once daily.
# FIGS. 16A-16D show the effects of systemic (16A) and intrathecal (16B) treatment with methotrexate (MTX) on the nociceptive behavior in the SNI model of neuropathic pain. […] In FIG. 16A MTX (0.2 mg/kg/d) was injected i.p. once daily starting 5 days after SNI surgery. Nociceptive behavior was assessed once daily three hours after drug injection. In FIG. 16B, MTX was administered as continuous intrathecal infusion (0.1 mg/kg/d for 14 days) starting right after SNI surgery. Nociceptive behavior was assessed once daily. FIGS. 16C and 16D show the body weight gain of animals during systemic (16C) and intrathecal (16D) MTX treatment. Determination of the weight gain was used to assess general well-being and potential toxic effects of MTX.
# In this graph, closed triangles represent vehicle, i.p.; open triangles represent DAHP at 90 mg/kg/day, i.p.; open squares represent DAHP at 180 mg/kg/day, i.p.; and open circles represent DAHP at 270 mg/kg/day, i.p.
# All procedures were performed in accordance with Massachusetts General Hospital animal care regulations. Adult male Sprague Dawley rats (200-300 g) were anesthetized with halothane. For the sciatic nerve transection (axotomy), the left sciatic nerve was exposed at the mid thigh level, ligated with 3/0 silk, and sectioned distally. The wound was sutured in two layers, and the animals were allowed to recover. For SNI the tibial and peroneal branch of the sciatic nerve were ligated and transected whereas the sural nerve was spared. For CCI, the sciatic nerve was loosely ligated with dexon 4/0 (three ligatures) and for the spinal ligation model the L5 spinal segmental nerve was ligated.
# [3] = DAHP 6 mg/kg/day continuous intrathecal infusion
# [4] = DAHP 180 mg/kg/day i.p., started 3 or 17 days post-surgery, vs vehicle
compound,measurement,setting,value
"Nc1cc(O)nc(N)n1 [DAHP, 2,4-Diamino-6-hydroxypyrimidine]",distribution in cerebrospinal fluid,[1],rapid distribution in the cerebrospinal fluid
same,plasma concentration after i.p. injection,[1],rapidly increased
same,"motor activity, von Frey and Hargreaves tests",naïve rats; DAHP 180 mg/kg i.p. single dose,did not result in a difference in motor activity
same,"sedation, general level of activity",naïve rats; DAHP,no obvious signs of sedation
same,antinociceptive effect compared with L-NAME,SNI model,stronger antinociceptive effect
same,cold allodynia,[2]; [3],reduced
same,mechanical allodynia,[2]; [3],reduced
same,"cold pain (cold allodynia, acetone)",[2]; [4],reduction
same,mechanical sensitivity (von Frey threshold),[2]; [4],reduction in mechanical sensitivity
same,"dose-effect relationship, nociceptive response to mechanical or cold stimuli","[2]; DAHP 90, 180, 270 mg/kg/day i.p.",dose-dependent relationship
